16 compounds from patent publication US9359363B2, “Identification of compounds that disperse TDP-43 inclusions” (priority 2011, dated 2016) can be followed below.

One test relates to mutant TDP-43 inclusions in human BE-M17 neuroblastoma cells. The test can be described thus: Arsenite-induced TDP-43 inclusion formation in BE-M17 cells. The test is classed as cell-based. To be noted: arsenite 0.5 mM, 1 hr, 10 μg/ml. From the text:
The inventors transfected human BE-M17 neuroblastoma cells with WT TDP-43, TDP-4386-414 or TDP-43216-414 constructs N-terminally tagged with GFP. Full length WT TDP-43 localized to the nucleus under basal conditions (FIG. 15, WT TDP-43 shown). To investigate TDP-43 aggregation under the stressful conditions, cells were exposed to arsenite, an agent classically used to induce SGs (Biochem Soc Trans, 2002, 30, 963-9; J Cell Biol, 2000, 151, 1257-68; J Cell Biol, 1999, 147, 1431-42; each herein incorporated by reference in its entirety). Arsenite causes stress through multiple mechanisms (Toxicol Appl Pharmacol, 2001, 177, 132-48; herein incorporaed by reference in its entirety). Arsenite directly induces oxidative stress by reacting with oxygen in a reaction similar to the Fenton reaction, and arsenite also uses up glutathione, which causes further oxidative stress (Toxicol Appl Pharmacol, 2001, 177, 132-48; herein incorporaed by reference in its entirety). Upon exposure to arsenite (1 hr) WT TDP-43 remained largely nuclear, but a small amount translocated to the cytoplasm where it formed inclusions (FIG. 15A, right panels, arrows). To determine whether the inclusions co-localized with SGs, we co-labeled the cells with antibodies to SG markers, including TIA-1, eIF3 and poly-A binding protein (PABP) (FIG. 15). […] Co-localization with other SG markers is also observed. […]
As for `C[C@@H]1C[C@@H]([C@H](O)CC2CC(=O)NC(=O)C2)C(=O)[C@@H](C)C1` [cycloheximide], the “formation of inclusions composed of mutant TDP-43 constructs” value is recorded as “reversible”.

The test system of a further test is TDP-43 inclusions in PC12 cells expressing WT TDP-43::GFP. The test can be described thus: High-throughput screen for inhibition of TDP-43 inclusion formation in inducible TDP-43::GFP PC12 cells (IN Cell Analyzer). To be noted: Rattus norvegicus, PC-12, 18 h, read-out: Inhibition of TDP-43 Inclusion Formation EC50.
Protocol: We generated a Tet-Off inducible PC12 cell line (Clontech; the parent line stably expresses high levels of the Tetracycline binding protein) that is stably transfected with a WT TDP-43::GFP (where the GFP is at the C-terminus). […] The high-throughput screen used the arsenite (50 μM, 18 hrs) treatment protocol, where arsenite was added 1 hr after the test compounds.
We used the automated GE IN Cell Analyzer 1000 microscope system for high throughput analyses. Test chemicals were added to the cells 48 hrs after induction of TDP-43 (by removal of doxycycline). After another 24 hrs, the cells were fixed and double-stained with DAPI (to detect nuclei). Inclusions present in a collar around the nucleus but not fully co-localized with the DAPI stain (FIG. 1) were identified by the IN-Cell analyzer as inclusions. The computer counted the number of cells (based on DAPI-positive nuclei), TDP-43 levels and inclusions per field. The counts from 6 different fields within a well were averaged to develop a measure of the mean number of inclusions per field. This was repeated for every well in a 384 well plate and every plate in the library.
PC12 cells are grown in DMEM, 10% NBS/Pen-Strep, 100 μg/ml hygromycin, 50 μM puromycin and 50 μg/ml doxycycline (the latter is removed for TDP-43 induction).
As for `COc1c(C)c2c(c(O)c1C/C=C(\C)CCC(=O)O)C(=O)OC2` [Mycophenolic acid, reference compound], the EC50 (usually the concentration that produces a half-maximal response) came out at 1500 nM.

Staying with this test, now noted: read-out: Inhibition of TDP-43 Inclusion Formation EC50; PC12 TDP-43::GFP cells; arsenite 50 μM, 18 hrs; representative values.
As to `Cc1ccc2ncnc(Nc3cccc(Cl)c3)c2c1` [Compound 2-4], the concentration for a half-maximal effect (EC50) is 10 nM.
Consider `C#CCNCC1(c2ccccc2)CCN(CCCCOC(c2ccc(F)cc2)c2ccc(F)cc2)CC1` [Compound 2-2], for which the EC50 amounted to 290 nM.
Take `COc1ccc(C2C(C(=O)Nc3ccccc3OC)=C(C)Nc3nc4ccccc4n32)cc1` (stereo not drawn) [Compound 5]: the EC50 was determined as 306 nM.
Still for that read-out and setting: as for `COc1ccccc1OCC(=O)NC1CCCN(c2ccc(C(F)(F)F)cn2)C1` (stereo not drawn) [Compound 4], the figure is 98 nM; as for `COCc1ccc(C(=O)NC(CC(C)C)c2nnc3n2CCN(Cc2cc4ccccc4o2)CC3)o1` (stereo not drawn) [Compound 2-7], 11 nM.
Take `COc1cccc(CN2CCN(C(=O)c3cc4ccccc4[nH]3)CCC2=O)c1` [Compound 2-8]: the EC50 was 180 nM.
As to `COc1cc(NC(=O)CCC2CCCN(Cc3ccc(F)c(OC)c3)C2)cc(OC)c1` (stereo not drawn) [Compound 3], the EC50 came out at 39 nM.
The same measure, in the same setting: as for `Cc1cc2cc(CCNS(=O)(=O)c3ccc(Cl)cc3)c(=O)[nH]c2cc1C` [Compound 2-5], the figure is 1290 nM; as for `CC(C)(C)c1ccc(S(=O)(=O)Nc2ccc(SCc3nc(OCC(F)(F)F)cc(OCC(F)(F)F)n3)cc2)cc1` [Compound 2-1], 152 nM.
Regarding `COc1ccc(NC(=O)C(Cc2ccccc2)NS(=O)(=O)c2cccc3cccnc23)cc1` (stereo not drawn) [Compound 6], the concentration for a half-maximal effect (EC50) was found to be 15 nM.
On to `CCc1ccc(NC(=O)C(Cc2ccccc2)NS(=O)(=O)c2cccc3cccnc23)cc1` (stereo not drawn) [Compound 7], for which the EC50 is 139 nM.
With `OC1(c2ccccc2)CCN(CCCCOC(c2ccc(F)cc2)c2ccc(F)cc2)CC1` [Compound 2-3], the EC50 was 1920 nM.
As to `CCN(CC1CCCN(CCc2ccccc2OC)C1)C(=O)c1cc2ccccc2[nH]1` (stereo not drawn) [Compound 2], the concentration for a half-maximal effect (EC50) came out at 74 nM.
Turning to Mithramycin A [reference compound], the EC50 turned out to be 2000 nM.

The test system of a further test is non-transgenic N2 C. elegans. The test can be described thus: Motor function in non-transgenic N2 C. elegans. Format: in vivo. To be noted: non-transgenic N2 line; FIG. 19 varying doses, FIG. 21 34.8 μM.
Regarding `CCc1ccc(NC(=O)C(Cc2ccccc2)NS(=O)(=O)c2cccc3cccnc23)cc1` (stereo not drawn) [Compound 7], the motor function result is “improves motor function”.

For the next test, the system named is C. elegans expressing human WT TDP-43 (CK405). The test can be described thus: Motor function in C. elegans expressing human WT TDP-43. The test is classed as in vivo. To be noted: transgenic TDP-43 nematodes, line not specified. From the text:
Determining whether compounds delay deterioration of motor function in C. elegans expressing TDP-43 in C. elegans: C. elegans is generally used as a simple in vivo model of disease bridging the gap between in vitro studies and in vivo studies in rodents (J Biol Chem, 2005. 280: 42655-68; J Neurosci, 2009. 29: 9210-8; Neurodegener Dis, 2010. 7: 68-75; each herein incorporated by reference in its entirety). Accordingly, C. elegans lines expressing TDP-43 (WT, G294A and A315T), obtained from Brian Kraemer, can be used to determine whether the indentified compounds ameliorate motor dysfunction associated with TDP-43 expression (J Neurosci, 2010. 30: 16208-19; herein incorporated by reference in its entirety). […] Movement and survival are calculated at adult days 1, 3 and 5, using methods described in the art (see, e.g., J. Neurosci. 2010 December 1, 30(48):16208-19; IEEE Trans Biomed Eng. 2004 October 51(10):1811-20, each herein incorporated by reference in its entirety).
In one example, eggs (C. elegans expressing A315T TDP-43, line CK426) were plated on agar containing the test compound. On day 4, movement of C. elegans was quantified and moved to plates with fresh compounds. On day 5, movement of C. elegans was again quantified. […]
As to `CCc1ccc(NC(=O)C(Cc2ccccc2)NS(=O)(=O)c2cccc3cccnc23)cc1` (stereo not drawn) [Compound 7], the motor function entry was “improves motor function”.
